Assay results as given in ChEMBL document CHEMBL1201862, “PubChem BioAssay data set” (2004).
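Protocol summary: plate cells (96-well), add compound at 5 concentrations, incubate 48 h, interpolate endpoints linearly. GI50 is the concentration that inhibits growth by half.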 Activity calls are given as the source filed them. Cut-off read from the data, not from the text of the source: active = GI50 up to about 1.1 µM and inactive = higher.

Key:
Assay in all cases: DTP human tumour cell line panel, 48 h
SNB-75 = test system: SNB-75
A549 = test system: A549
MOLT-4 = test system: MOLT-4
Malme-3M = test system: Malme-3M
SF-539 = test system: SF-539
SN12C = test system: SN12C
SK-MEL-5 = test system: SK-MEL-5
M19-MEL = test system: M19-MEL
NCI-H23 = test system: NCI-H23
OVCAR-3 = test system: OVCAR-3
A498 = test system: A498
OVCAR-4 = test system: OVCAR-4
HOP-92 = test system: HOP-92
IGROV-1 = test system: IGROV-1
RPMI-8226 = test system: RPMI-8226
SK-MEL-28 = test system: SK-MEL-28
EKVX = test system: EKVX
SR = test system: SR
DU-145 = test system: DU-145
T47D = test system: T47D

Compound	GI50 (SNB-75)	GI50 (A549)	GI50 (MOLT-4)	GI50 (Malme-3M)	GI50 (SF-539)	GI50 (SN12C)	GI50 (SK-MEL-5)	GI50 (M19-MEL)	GI50 (NCI-H23)	GI50 (OVCAR-3)	GI50 (A498)	GI50 (OVCAR-4)	GI50 (HOP-92)	GI50 (IGROV-1)	GI50 (RPMI-8226)	GI50 (SK-MEL-28)	GI50 (EKVX)	GI50 (SR)	GI50 (DU-145)	GI50 (T47D)
O=NN(CCCl)C(=O)N[C@H]1CC[C@@H](CC(=O)O)CC1	> 81.1 µM (inactive)	> 100 µM (inactive)	44 µM (inactive)	> 100 µM (inactive)	45.7 µM (inactive)	> 100 µM (inactive)	> 100 µM (inactive)	> 100 µM (inactive)	> 100 µM (inactive)	> 100 µM (inactive)	> 100 µM (inactive)	> 100 µM (inactive)	> 84.9 µM (inactive)	> 100 µM (inactive)	35.2 µM (inactive)	> 100 µM (inactive)	> 100 µM (inactive)	–	–	–
CCN(CC)Cc1cc(Nc2ccnc3ccc4nn(C)nc4c23)ccc1O	12.3 µM (inactive)	21.1 µM (inactive)	6.58 µM (inactive)	16.9 µM (inactive)	13.6 µM (inactive)	11.3 µM (inactive)	16.3 µM (inactive)	11.9 µM (inactive)	15.3 µM (inactive)	12.3 µM (inactive)	–	10.4 µM (inactive)	–	25.2 µM (inactive)	7.85 µM (inactive)	14 µM (inactive)	–	74.6 µM (inactive)	–	–
COc1ccc(S(=O)(=O)NC(CCC(=O)NN)C(=O)NN)cc1 (configuration not stated)	> 100 µM (inactive)	> 100 µM (inactive)	> 100 µM (inactive)	> 100 µM (inactive)	> 100 µM (inactive)	> 100 µM (inactive)	> 100 µM (inactive)	–	> 100 µM (inactive)	> 100 µM (inactive)	> 100 µM (inactive)	> 100 µM (inactive)	> 100 µM (inactive)	> 100 µM (inactive)	> 100 µM (inactive)	> 100 µM (inactive)	> 100 µM (inactive)	> 100 µM (inactive)	> 100 µM (inactive)	> 100 µM (inactive)
COc1c(Cl)c(=O)oc2ccc(Cl)cc12	39.9 µM (inactive)	> 100 µM (inactive)	> 100 µM (inactive)	> 100 µM (inactive)	> 100 µM (inactive)	> 100 µM (inactive)	> 100 µM (inactive)	–	> 100 µM (inactive)	> 100 µM (inactive)	> 100 µM (inactive)	> 100 µM (inactive)	25.2 µM (inactive)	> 100 µM (inactive)	> 100 µM (inactive)	> 100 µM (inactive)	81.7 µM (inactive)	> 100 µM (inactive)	> 100 µM (inactive)	> 100 µM (inactive)
Cc1cc(=O)oc2cc(O)ccc12 [HYMECROMONE]	39.1 µM (inactive)	> 100 µM (inactive)	> 100 µM (inactive)	> 100 µM (inactive)	> 100 µM (inactive)	> 100 µM (inactive)	> 100 µM (inactive)	–	> 100 µM (inactive)	> 100 µM (inactive)	65.8 µM (inactive)	> 100 µM (inactive)	79.8 µM (inactive)	> 100 µM (inactive)	> 100 µM (inactive)	> 100 µM (inactive)	> 100 µM (inactive)	69 µM (inactive)	> 100 µM (inactive)	> 100 µM (inactive)
Oc1c(/N=N/c2ccccc2)c2ccccc2c2ccc3ccccc3c12	64.1 µM (inactive)	43.2 µM (inactive)	40.6 µM (inactive)	48.3 µM (inactive)	34.5 µM (inactive)	> 100 µM (inactive)	> 100 µM (inactive)	–	> 100 µM (inactive)	> 100 µM (inactive)	> 100 µM (inactive)	33.2 µM (inactive)	38.2 µM (inactive)	> 100 µM (inactive)	45.6 µM (inactive)	> 100 µM (inactive)	50.4 µM (inactive)	17.9 µM (inactive)	> 100 µM (inactive)	> 100 µM (inactive)
CC[C@@]1(O)C(=O)OCc2c1cc1n(c2=O)Cc2c-1nc1ccccc1c2/C=N\NC(=O)C(N)CCSC (some centres not stated)	< 0.01 µM (active)	0.0183 µM (active)	< 0.01 µM (active)	0.102 µM (active)	< 0.01 µM (active)	< 0.01 µM (active)	0.0149 µM (active)	–	< 0.01 µM (active)	0.352 µM (active)	0.0628 µM (active)	0.299 µM (active)	0.0863 µM (active)	0.239 µM (active)	< 0.0282 µM (active)	1.03 µM (active)	0.668 µM (active)	< 0.01 µM (active)	0.0175 µM (active)	< 0.01 µM (active)
CON(C)C(=O)CCCO	> 100 µM (inactive)	> 100 µM (inactive)	> 100 µM (inactive)	> 100 µM (inactive)	> 100 µM (inactive)	> 100 µM (inactive)	> 100 µM (inactive)	> 100 µM (inactive)	> 100 µM (inactive)	> 100 µM (inactive)	–	> 100 µM (inactive)	> 100 µM (inactive)	> 100 µM (inactive)	> 100 µM (inactive)	> 100 µM (inactive)	> 100 µM (inactive)	> 100 µM (inactive)	–	–
CC(=O)Nc1ccc2c3c(cc(O)c2c1)N(C(=O)CCCC(=O)N1CC(CCl)c2c1cc(O)c1cc(NC(C)=O)ccc21)CC3CCl (configuration not stated)	< 0.01 µM (active)	< 0.01 µM (active)	< 0.01 µM (active)	0.01 µM (active)	0.0223 µM (active)	< 0.01 µM (active)	0.0108 µM (active)	–	< 0.01 µM (active)	0.0111 µM (active)	< 0.01 µM (active)	0.0238 µM (active)	0.0199 µM (active)	0.0102 µM (active)	0.0109 µM (active)	0.0201 µM (active)	0.0423 µM (active)	< 0.01 µM (active)	< 0.01 µM (active)	< 0.01 µM (active)
Cc1ccc(CSC(=N)Nc2ccccc2)cc1C	25.8 µM (inactive)	28.3 µM (inactive)	24.2 µM (inactive)	17.1 µM (inactive)	22.9 µM (inactive)	18.9 µM (inactive)	16.1 µM (inactive)	–	22.9 µM (inactive)	19.3 µM (inactive)	16.6 µM (inactive)	16.1 µM (inactive)	16 µM (inactive)	23.2 µM (inactive)	22.5 µM (inactive)	24.7 µM (inactive)	26.4 µM (inactive)	19.5 µM (inactive)	20.7 µM (inactive)	17.2 µM (inactive)
O=C1C(Cl)=C(Nc2ccc(S(=O)(=O)Nc3ccccn3)cc2)C(=O)c2ccccc21	7.91 µM (inactive)	18.7 µM (inactive)	3.61 µM (inactive)	2.96 µM (inactive)	4.54 µM (inactive)	11.3 µM (inactive)	4.4 µM (inactive)	–	10.8 µM (inactive)	4.65 µM (inactive)	20.7 µM (inactive)	17.3 µM (inactive)	5.7 µM (inactive)	5.93 µM (inactive)	3.52 µM (inactive)	16.3 µM (inactive)	9.4 µM (inactive)	3.03 µM (inactive)	7.91 µM (inactive)	6.08 µM (inactive)
CC(C)N(C(=O)C12C3C4C1C1C4(C#N)C3C12C#N)C(C)C (configuration not stated)	–	> 100 µM (inactive)	> 100 µM (inactive)	> 100 µM (inactive)	> 100 µM (inactive)	> 100 µM (inactive)	> 100 µM (inactive)	> 100 µM (inactive)	> 100 µM (inactive)	> 100 µM (inactive)	> 100 µM (inactive)	> 100 µM (inactive)	> 100 µM (inactive)	> 100 µM (inactive)	> 100 µM (inactive)	> 100 µM (inactive)	> 100 µM (inactive)	–	–	–
O=C(O)/C=N/NC(=S)NC1CCCCC1	> 100 µM (inactive)	> 100 µM (inactive)	> 100 µM (inactive)	> 100 µM (inactive)	> 100 µM (inactive)	> 100 µM (inactive)	> 100 µM (inactive)	–	> 100 µM (inactive)	> 100 µM (inactive)	> 100 µM (inactive)	> 100 µM (inactive)	> 100 µM (inactive)	> 100 µM (inactive)	> 100 µM (inactive)	> 100 µM (inactive)	> 100 µM (inactive)	> 100 µM (inactive)	> 100 µM (inactive)	> 100 µM (inactive)
CC1=C(C(=O)Nc2ccccc2)C(c2ccc(C)o2)C(C#N)=C(SCc2ccccc2)N1 (configuration not stated)	> 100 µM (inactive)	> 90.4 µM (inactive)	7.55 µM (inactive)	5.77 µM (inactive)	> 100 µM (inactive)	> 100 µM (inactive)	34.5 µM (inactive)	–	> 100 µM (inactive)	51.9 µM (inactive)	> 81.5 µM (inactive)	> 72.3 µM (inactive)	5.25 µM (inactive)	52.6 µM (inactive)	25.1 µM (inactive)	> 100 µM (inactive)	> 84.3 µM (inactive)	4.75 µM (inactive)	> 100 µM (inactive)	13.3 µM (inactive)
c1ccc(/N=c2\snc3scc(-c4ccccc4)n23)cc1	> 100 µM (inactive)	37.5 µM (inactive)	29.3 µM (inactive)	31.6 µM (inactive)	37.4 µM (inactive)	44.6 µM (inactive)	24.5 µM (inactive)	32.3 µM (inactive)	36.6 µM (inactive)	22.8 µM (inactive)	> 100 µM (inactive)	39.6 µM (inactive)	34.2 µM (inactive)	41.8 µM (inactive)	28.7 µM (inactive)	41 µM (inactive)	90.2 µM (inactive)	–	–	–
